Key:
Saccharomyces cerevisiae [1] = assay: Antifungal activity against Saccharomyces cerevisiae S288C assessed as fungal growth inhibition; type: functional, organism-based
Saccharomyces cerevisiae [2] = assay: Antifungal activity against Saccharomyces cerevisiae AD18 assessed as fungal growth inhibition; type: functional, organism-based

Row | SMILES | IC50 (Saccharomyces cerevisiae [1]) [µM] | IC50 (Saccharomyces cerevisiae [2]) [µM]
1 | CC(=O)O[C@H]1C(=O)[C@]2(C)[C@H](O)C[C@H]3OC[C@@]3(OC(C)=O)[C@H]2[C@H](OC(=O)c2ccccc2)[C@]2(O)C[C@H](OC(=O)[C@H](O)[C@@H](NC(=O)c3ccccc3)c3ccccc3)C(C)=C1C2(C)C | > 100 | 71.5
2 | CC(=O)O[C@H]1C(=O)[C@@]2(C)[C@H]([C@H](OC(=O)c3ccccc3)[C@]3(O)C[C@H](OC(=O)[C@H](O)[C@@H](NC(=O)c4ccccc4)c4ccccc4)C(C)=C1C3(C)C)[C@]1(OC(C)=O)CO[C@@H]1C[C@@H]2O [PACLITAXEL] | > 100 | > 100

Reference: ChEMBL document CHEMBL4622894, “An effective method to produce 7-epitaxol from taxol in HCO3” (Bioorg Med Chem Lett, 2020)
